Laboratory results as given in EPA's ToxValDB 9.5.
Values joined by “and” are separate entries in the source; they are usually repeats but may differ in a detail not shown here. Identical values can stand only once.

Assays:
[1] = test system: Oryctolagus sp.; settings: for LD50: acute, dermal; for NOAEL: reproduction developmental, duration: 21 days, oral, gavage
[2] = test system: Rattus norvegicus; settings: for LC50 / LD50: acute
[3] = test system: Rattus norvegicus; settings: for NOEL / LOEL: Hershberger, gavage; for NOEL: duration: 10 days; for LEL: uterotrophic, Active; for LOEL: active + Antiandrogenic + anti-androgenic + decreased age at PPS at 20mg/kg, increased at 80 mg/kg (with 7.8% increased liver wt at high …
[4] = test system: Mus musculus; settings: chronic; duration: 50 weeks; oral; drinking water; F; Swiss; body weight
[5] = test system: Rattus norvegicus; settings: subchronic; duration: 13 weeks; oral; diet; F; Fischer 344; Body Weight Changes: decrease + Histopathology: Bone marrow-Reticulum-cell hyperplasia Bone marrow-Myeloid depletion
[6] = chronic, oral, diet, Sprague-Dawley
[7] = oral, Sprague-Dawley, inactive + Negative + Negative + neither + negative
[8] = duration: 3 days, injection, subcutaneous

With `O=C1c2ccccc2C(=O)N1SC1CCCCC1` [N-(Cyclohexylthio)phthalimide] as the compound, how does the LD50 ([1]; occlusive, New Zealand) read?
The LD50 was > 5010 mg/kg.

And the LOAEL [2, 6]?
The LOAEL was 150 mg/kg-day.

What about the NOAEL [2, 6] of the same compound?
Its NOAEL is 50 mg/kg-day.

How did the NOEL [3, 7] turn out when `CCCCC(CC)CN1C(=O)C2C3C=CC(C3)C2C1=O` (centres undefined) [Octylbicycloheptenedicarboximide] was run?
The NOEL was 700 mg/kg-day.

`[Na+].[S-]c1nc2ccccc2s1` [Sodium 2-mercaptobenzothiolate] was tested. Which LD50 [1] did it give?
Its LD50 is > 7940 mg/kg.

What about the LD50 ([1]; occlusive, New Zealand) of the same compound?
The LD50 was > 7940 mg/kg.

And the LC50 ([2]; inhalation)?
The LC50 was > 6.5 mg/L.

And the LC50 ([2]; inhalation, Sprague-Dawley)?
Its LC50 is > 1.3 mg/L.

And the LD50 ([2]; oral)?
The LD50 was 4350 mg/kg.

What about the LD50 ([2]; oral, Sprague-Dawley) of the same compound?
The LD50 was 1480 mg/kg and 4350 mg/kg.

What does the source list for `CCNc1ccccc1` [N-Ethylaniline]?
LD50 ([1]; New Zealand): > 2000 mg/kg; LD50 ([2]; dermal): 1920 mg/kg; LC50 ([2]; inhalation, Sprague-Dawley): ≥ 1.13 mg/L and ≤ 1.48 mg/L; LD50 ([2]; oral): 300 mg/kg; LD50 ([2]; oral, gavage, Sprague-Dawley): ≥ 332 mg/kg and ≤ 402 mg/kg

Which results are given for `CC(C#N)CCC#N` (centres undefined) [2-Methylpentanedinitrile]?
LD50 ([1]; New Zealand): 776 mg/kg; LD50 ([2]; oral, Sprague-Dawley): 205 mg/kg and ≥ 174 mg/kg and ≤ 243 mg/kg; NOAEL ([2]; short-term, duration: 4 weeks, inhalation, Crl:CD(SD) BR): 25 mg/m3

With `C[C@H]1CCC[C@@H](O)CCC/C=C/c2cc(O)cc(O)c2C(=O)O1` [beta-Zearalenol] as the compound, how does the LEL ([3]; duration: 3 days, oral) read?
Its LEL is 0.8 mg/day.

Which results are given for `O=S(=O)([O-])c1ccc(Nc2nc(Nc3ccc(/C=C/c4ccc(Nc5nc(Nc6ccc(S(=O)(=O)[O-])cc6)nc(N(CCO)CCO)n5)cc4S(=O)(=O)[O-])c(S(=O)(=O)[O-])c3)nc(N(CCO)CCO)n2)cc1.[Na+].[Na+].[Na+].[Na+]` [C.I. Fluorescent Brightener 220]?
NOAEL ([1]; F, New Zealand): 100 mg/kg-day; NOAEL ([1]; New Zealand, generation: F1): 300 mg/kg-day and 800 mg/kg-day; LD50 ([2]; oral, gavage): > 15000 mg/kg; NOAEL ([2]; chronic, duration: 104 weeks, oral, diet, F, Wistar): 780 mg/kg-day; NOAEL ([2]; chronic, duration: 104 weeks, oral, diet, M, Wistar): 780 mg/kg-day; NOAEL ([2]; reproduction developmental, duration: 9 months, oral, gavage, Sprague-Dawley, generation: F1): 1000 mg/kg-day; NOAEL ([2]; reproduction developmental, duration: 9 months, oral, gavage, Sprague-Dawley, generation: F2): 1000 mg/kg-day; NOAEL ([2]; reproduction developmental, duration: 13 days, oral, gavage, F, Sprague-Dawley): 1000 mg/kg-day; NOAEL ([2]; reproduction developmental, duration: 13 days, oral, gavage, Sprague-Dawley, generation: F1): 1000 mg/kg-day; NOAEL ([2]; reproduction developmental, oral, gavage, Sprague-Dawley, generation: F0): 1000 mg/kg-day; NOAEL ([2]; reproduction developmental, oral, gavage, Sprague-Dawley, generation: F1): 1000 mg/kg-day; NOAEL ([2]; subchronic, duration: 10 weeks, oral, gavage, F, Wistar): 500 mg/kg-day; NOAEL ([2]; subchronic, duration: 10 weeks, oral, gavage, M, Wistar): 500 mg/kg-day

For `O=[N+]([O-])c1ccc(O)c([N+](=O)[O-])c1` [2,4-Dinitrophenol], which LOAEL [4] is on record?
The LOAEL was 0.07 mg/kg-day.

For `CC(C)(C)NC(=O)[C@H]1CC[C@H]2[C@@H]3CC[C@H]4NC(=O)C=C[C@]4(C)[C@H]3CC[C@]12C` [Finasteride], which LOEL ([3]; duration: 5 days, oral, Sprague-Dawley) is on record?
Its LOEL is 20 mg/kg-day and 25 mg/kg-day.

What about the LOEL ([3]; duration: 7 days, oral, Sprague-Dawley) of the same compound?
Its LOEL is 20 mg/kg-day and 25 mg/kg-day.

`O=C1O[C@H]([C@@H](O)CO)C(O)=C1O` [L-Ascorbic acid] was tested. Which NOEL [5] did it give?
The NOEL was < 2400 mg/kg-day.

And the LEL ([3]; duration: 20 days, injection, subcutaneous)?
The LEL was 25 mg/kg-day.

`O=c1oc2cc(O)ccc2c2oc3cc(O)ccc3c12` [Coumestrol] was tested. Which LEL [3, 8] did it give?
Its LEL is 1 mg/day.

Which NOEL [3, 7] does the source give for `CC(C)[C@H](C(=O)O[C@H](C#N)c1cccc(Oc2ccccc2)c1)c1ccc(Cl)cc1` [Esfenvalerate] here?
Its NOEL is 9 mg/kg-day.

How did the NOEL ([3]; oral, Wistar, inactive + Negative + Negative + anti-androgenic + negative on gonad/AST / significant thyroid effects beginning at 25 / increased SV wt …) turn out when `Nc1ncn[nH]1` [Amitrole] was run?
Its NOEL is 125 mg/kg-day.

How did the LEL ([3]; duration: 1 days, injection, subcutaneous) turn out when `Cc1c2ccccc2c(C)c2c1ccc1ccccc12` [7,12-Dimethylbenz(a)anthracene] was run?
The LEL was 15 mg/kg-day.

`CCOC(=O)c1ccc(O)cc1` [Ethylparaben] was tested. Which LEL [3, 8] did it give?
Its LEL is 180 mg/kg-day.

Which results are given for `C=C1C2CCC(C2)C1(C)C` (centres undefined) [Camphene]?
LD50 ([1]; New Zealand): > 2500 mg/kg; LD50 ([2]; oral, Wistar): > 5000 mg/kg; NOAEL ([2]; developmental, duration: 10 days, oral, gavage, Sprague-Dawley): 1000 mg/kg-day; NOAEL ([2]; reproduction developmental, duration: 10 days, oral, gavage, F, Sprague-Dawley): 250 mg/kg-day; NOAEL ([2]; short-term, duration: 28 days, oral, gavage, F, Wistar): 250 mg/kg-day; NOAEL ([2]; short-term, duration: 28 days, oral, gavage, M, Wistar): 62.5 mg/kg-day; LOAEL ([2]; short-term, duration: 28 days, oral, gavage, Wistar): 1000 mg/kg-day
